Here are results for four sequences from patent publication US11020468B2, “Compositions, methods and therapies for administering antigen peptide” (priority 2010, dated 2021).

The subject of experiment [1] is P. acnes (ATCC6919). In words: Anti-inflammatory effect of peptides against intradermic inflammation caused by P. acnes in mice. To be noted: for anti-inflammatory effect against inflammation caused by P. acnes: vs PBS. It counts as in vivo, Balb/c mice. How it is done: Living bacterial cells of P. acnes were put in a deaerated physiological saline while keeping an anaerobic condition to prepare a suspension with the number of the living bacterial cells of P. acnes of 5×10^7 cells/ml, 1×10^8 cells/ml, or 5×10^8 cells/ml. The anaerobic condition was kept by spraying a nitrogen gas. The number of the living bacterial cells of P. acnes was calculated based on the assumption that OD measurement value of 0.98-1.02 at 550 nm measured by a spectrophotometer corresponds to 5×10^8 cells/ml, with reference to Ramstad S. et al., Photochem. Photobiol. Sci., 2006, 5, 66-72.
50 μl of the prepared suspension of P. acnes was intradermically injected into shaven abdominal midlines, neck portions, lumbar dorsal portions, tail root dorsal portions, and auricles of male Balb/c mice (9-10 weeks old). The inflammatory areas (major axis×minor axis: mm^2) at individual portions to which the suspension was injected intradermically were measured at predetermined times. Each group consisted of five individuals.
Accordingly, the anti-inflammatory effects of individual peptides were determined under the same conditions, i.e. by intradermically injecting 50 μl of P. acnes (5×10^8 cells/ml) into the abdominal midline and measuring the inflammatory area (mm^2) five days after the injection. FIG. 3 illustrates the procedure for examining the anti-inflammatory effect.
(§1) FIG. 3 is a drawing schematically illustrating the procedure for examining the anti-inflammatory effect. […] Then, P. acnes was intradermically injected into the abdominal midlines of the mice, and the inflammatory areas were measured 5 days after the injection (Day “23” in FIG. 3). Each group consisted of 10 mice. As Comparative Examples, there were prepared a group of mice to which PBS without PepA was administered and a group of mice to which PepB or PepC was administered instead of PepA, and P. acnes was injected into the groups similarly.
The anti-inflammatory effects of individual peptides were examined using an inflammation causing system under the same conditions as in Example 4 except that the peptides to be administered to mice before injection of P. acnes were changed from PepA, PepB, and PepC to PepA and PepD.

Experiment [2] deals with acne-patient-derived P. acnes (patient strains 1-3). In words: Anti-inflammatory effect of PepA against inflammation caused by patient-derived P. acnes in mice. The class given is in vivo. Particulars: for P (inflammatory area compared with control group given PBS): 5 days after injection. As for the experimental part:
as §1
The anti-inflammatory effect of PepA was examined by the same procedure as in Example 5 except that bacterial cells of P. acnes to be injected into mice were the acne-patient-derived bacterial cells of P. acnes which were isolated in Example 6.
FIG. 7 is a graph showing the result of intradermically injecting, after immunization by PepA, the patient strains 1-3 (P1-P. acnes to P3-P. acnes) to the abdominal midlines of mice and measuring inflammatory areas of the mice 5 days after the injection.

The mark [3] stands for this setting: Example 4, 40 μg/50 μl intradermal, three times, area 5 days after P. acnes injection into abdominal midline.
[4] abbreviates: Example 4, 40 μg/50 μl intradermal, three times, area 5 days after injection.
The mark [5] stands for this setting: Example 5, same conditions as Example 4.

With “AIQEKYGDDRERAG (Propionibacterium acnes) [PepA, residues 90-103 of P. acnes membrane protein AAT84059]”, the “P (inflammatory area compared with control group given PBS)” value in experiment [1] (setting [3]) came to 0.00865; in experiment [1] (setting [5]), 0.0012; in experiment [2] (patient strain 1) it was 0.0252; in experiment [2] (patient strain 2) it was 0.0476; in experiment [2] (patient strain 3) it was 0.0237. Further, the “anti-inflammatory effect against inflammation caused by P. acnes” value (“anti-inflammatory effect … by P. acnes” below) in experiment [1] (setting [4]) and in experiment [1] (setting [5]) was “statistically significantly reduced inflammatory area” each time. Also, in experiment [2] (each of patient strains 1-3, vs PBS), the “anti-inflammatory effect against injection of patient strains” value is “statistically significantly reducing an inflammatory area”.

In the case of “GRKPDTNKRSWHRKASR [PepB, reference compound]”, in experiment [1] (setting [3]), the “P (inflammatory area compared with control group given PBS)” value amounted to 1. For the same sequence, the “anti-inflammatory effect … by P. acnes” value in experiment [1] (setting [4]) was “do not exhibit the anti-inflammatory effect”.

Take “IDQVREYRHRDDDDDEDPGEDG [PepC, reference compound]”: the “P (inflammatory area compared with control group given PBS)” value in experiment [1] (setting [3]) is on record as 0.1655. Also, in experiment [1] (setting [4]), the “anti-inflammatory effect … by P. acnes” value was “do not exhibit the anti-inflammatory effect”.

Consider “KDADKDNPTYQKV (Propionibacterium acnes) [PepD, residues 260-272 of P. acnes membrane protein YP_056445]”, for which, in experiment [1] (setting [5]), the “P (inflammatory area compared with control group given PBS)” value came out at 0.00175 and the “anti-inflammatory effect … by P. acnes” value was “statistically significantly reduced inflammatory area”.
